Source: patent US8158828B2, “Nuclear receptor binding agents” (priority 2005, dated 2012)
pIC50: −log10 of the molar value. “Also recorded” adds a separate entry of the source.

Assays:
[1] = tested on: TRAP positive multinucleated osteoclasts; assay: TRAP positive multinucleated osteoclasts from bone marrow cells; assay type: cell-based, rat; settings: RANKL and GMCSF, 12 days
Procedure: FIG. 7: Effect of the indicated compounds on TRAP positive multinucleated osteoclasts. Bone marrow cells from rat femur was cultured in Alpha MEM+10% csFBS without phenol red in the presence or absence of 30 ng/ml RANKL and 10 ng/ml GMCSF. The cells were treated for 12 days and were stained for tartarate resistant acid phosphatase activity (TRAP) and multinucleated osteoclasts were counted.
Bone marrow cells isolated from rat femur were cultured in Alpha MEM without phenol red+10% sterile FBS without phenol red in the presence or absence of […] RANKL and 10 ng/ml GMCSF. The cells were treated for 12 days were stained for tartarate resistant acid phosphatase activity (TRAP) positive multinucleated osteoclasts and were counted.

PC-3 cells = assay: Androgen independent prostate cancer cell growth; assay type: cell-based; settings: for PC-3 cell growth inhibition: 72 hrs; for PC-3 growth inhibition, qualitative grading: in vitro, data not shown
Procedure: PC-3 cells were plated in RPMI+10% csFBS at 6000 cells per well of a 96 well plate. Medium was changed to RPMI+1% csFBS without phenol red and then treated for 72 hrs with increasing concentrations of SERMs.
The prostate cancer cell line PC-3 was plated in RPMI+10% csFBS at 6000 cells per well of a 96 well plate. Medium was changed to RPMI+1% csFBS without phenol red and cells were treated for 72 hrs with increasing concentrations of SERMs.
PC-3 growth inhibition was determined qualitatively, in vitro, and represented as a grading system based on the ability of the SERMs to inhibit growth. The number −4 is for compounds that induced 100% growth inhibition at 1 uM, −3 for compounds that inhibit growth by about 75-90%, −2 for about 50-70% and −1 for inhibition less than 50% growth.

ER-α = molecular target: T1, ER-α (Rattus norvegicus, UniProt P06211); assay: ER-α transactivation, ERE-LUC in COS or 293 cells; assay type: cell-based; parameters: % estardiol activity, ER-α: dose or concentration left out as unconfirmed; settings: for inhibition of estradiol (E2) induced ER-α activity (luciferase expression): with estrogen
T1 sequence (P06211 1-600): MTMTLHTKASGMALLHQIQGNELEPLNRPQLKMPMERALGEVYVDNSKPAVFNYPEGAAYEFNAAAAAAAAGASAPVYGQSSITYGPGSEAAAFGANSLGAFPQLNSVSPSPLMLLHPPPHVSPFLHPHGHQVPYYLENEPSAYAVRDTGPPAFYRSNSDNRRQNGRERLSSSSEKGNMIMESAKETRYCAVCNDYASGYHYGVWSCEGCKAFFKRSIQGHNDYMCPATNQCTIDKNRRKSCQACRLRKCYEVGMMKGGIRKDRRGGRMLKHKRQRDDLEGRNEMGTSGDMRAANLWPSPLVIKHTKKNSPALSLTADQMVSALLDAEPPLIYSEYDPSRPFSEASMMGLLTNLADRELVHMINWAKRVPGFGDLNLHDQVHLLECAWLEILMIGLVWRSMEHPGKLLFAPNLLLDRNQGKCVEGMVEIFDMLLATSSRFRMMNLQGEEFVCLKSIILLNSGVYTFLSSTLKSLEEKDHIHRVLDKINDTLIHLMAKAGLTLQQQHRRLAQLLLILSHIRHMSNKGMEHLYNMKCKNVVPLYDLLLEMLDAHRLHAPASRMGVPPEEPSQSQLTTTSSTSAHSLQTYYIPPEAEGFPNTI

uterus = assay: In vivo estrogenic activity, uterine weight; parameters: species or system rat; settings: female rats; for estrogenic activity in terms of uterine weight: compound alone
Procedure: Rats that were administered the vehicle alone served as controls.

Structure (SMILES) | osteoclast differentiation / osteoclast activity [1] | PC-3 cell growth inhibition (PC-3 cells; concentration not given) | PC-3 growth inhibition, qualitative grading (PC-3 cells) | % estardiol activity, ER-α (ER-α) | ER-α activity (luciferase expression), compound alone (ER-α; COS or 293 cells) | inhibition of estradiol (E2) induced ER-α activity (luciferase expression) (ER-α; COS or 293 cells) | pIC50 (ER-α; ER alpha antagonists) | estrogenic activity in terms of uterine weight (uterus) | uterine weight increase, with ICI-182,780 (uterus; with ICI-182,780) | uterine weight, coadministered with estrogen (uterus; with estrogen) | osteoclast differentiation / osteoclast activity ([1]; hydrochloride) | PC-3 cell growth inhibition (PC-3 cells; 1 μM)
O=C(c1ccccc1)N(c1ccc(O)cc1)c1ccc(OCCN2CCCCC2)cc1 [Compound 4a, N-(4-hydroxyphenyl)-N-[4-(2-piperidin-1-ylethoxy)-phenyl]-benzamide] | minimally but dose-dependently suppressed the osteoclast differentiation | about 50% | −1 (−1 for inhibition less than 50% growth) | 29.9% | no effect on ER-α activity; also recorded: neither SERM alone showed any such effect | inhibited the estradiol (E2) induced ER-α activity to basal levels; also recorded: inhibited estrogen stimulated luciferase expression | 7.46 | exhibited estrogenic activity, in terms of increased uterine weight; also recorded: exhibited estrogenic activity, in vivo | ICI-182,780 reversed 4a and 4g effects on uterine weight increase | an increase in uterine weight was observed |  | 
Cl.O=C(c1ccc(F)cc1)N(c1ccc(O)cc1)c1ccc(OCCN2CCCCC2)cc1 [Compound 4h, N-(4-hydroxyphenyl)-N-[4-(2-piperidin-1-ylethoxy)-phenyl]-4-fluroro-benzamide hydrochloride] |  |  | −2 (−2 for about 50-70%) | 17.4% |  | inhibited estrogen stimulated luciferase expression |  | exhibited no estrogenic, or anti-estrogenic activity in uterus |  |  | minimally but dose-dependently suppressed the osteoclast differentiation; also recorded: highly suppressive of osteoclast activity | 75%
